Experimental data as given in patent publication US11053242B2, “[9,10-dimethoxy-3-(2-methylpropyl)-1H,2H,3H,4H,6H,7H,11BH-pyrido-[2,1-a]isoquinolin-2-yl]methanol and compounds, compositions and methods relating thereto” (Neurocrine Biosciences, Inc., priority 2015, dated 2021).

Tests used:
[1] = molecular target: VMAT2 (human platelet homogenate) (Homo sapiens (Human), UniProt Q05940); assay: Human VMAT2 Ki, slightly modified competition binding procedure (Table 11); conditions: 10 nM 3H-dihydrotetrabenazine;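 also: competition binding with 90 min incubation at 25 °C, after which filter-retained radioligand was measured by scintillation counting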
Experimental: Following incubation at 25° C. for 90 minutes, bound radioligand was collected by rapid filtration onto GF/B glass fiber filters using a Unifilter-96 Harvester (PerkinElmer). Filter plates were pre-treated with 0.1% polyethylenimine and allowed to dry overnight, and following harvesting the filter plates were washed with 800 d VMAT2 binding buffer. Bound radioligand was quantified by scintillation counting using a Topcount NXT (PerkinElmer).

[2] = In vitro human intestinal S9 hydrolysis assay (formation of compound 1-1); conditions: human intestinal S9, 1 uM, 37° C., up to 60 minutes
Experimental: Compounds (1 uM) were incubated with pooled intestinal S9 subcellular preparations (0.5 mg/mL total protein) from SD rats and humans without the addition of protease inhibitor phenylmethylsulfonylflouride. Incubations were carried out in a potassium phosphate buffer (50 mM). All concentrations were relative to the final incubation volume of 125 uL. Incubations were conducted at 37° C. for 0, 5, 10, 20, 40 and 60 minutes in a water bath and terminated by rapid mixing with 150 uL of ice-cold acetonitrile containing 1% formic acid. Internal standard was added and proteins were precipitated and removed by centrifugation prior to LC/MS analysis.

VMAT2 (human platelet homogenate), sequence (Q05940 whole entry): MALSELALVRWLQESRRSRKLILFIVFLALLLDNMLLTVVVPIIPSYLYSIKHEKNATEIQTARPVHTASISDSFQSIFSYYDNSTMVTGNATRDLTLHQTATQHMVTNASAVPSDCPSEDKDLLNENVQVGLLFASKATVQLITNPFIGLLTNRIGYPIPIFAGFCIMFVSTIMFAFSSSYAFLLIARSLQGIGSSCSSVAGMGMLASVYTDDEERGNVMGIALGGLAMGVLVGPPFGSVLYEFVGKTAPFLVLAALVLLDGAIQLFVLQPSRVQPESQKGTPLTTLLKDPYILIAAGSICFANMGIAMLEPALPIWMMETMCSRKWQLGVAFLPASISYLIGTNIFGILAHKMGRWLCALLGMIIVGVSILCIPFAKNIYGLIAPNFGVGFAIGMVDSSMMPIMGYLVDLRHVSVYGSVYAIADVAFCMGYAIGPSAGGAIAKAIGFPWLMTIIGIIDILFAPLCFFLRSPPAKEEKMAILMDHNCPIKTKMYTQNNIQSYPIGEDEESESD

| SMILES | Ki [1] [nM] | S9 Assay (ability to form compound 1-1) [2] |
| --- | --- | --- |
| COc1cc2c(cc1OC)[C@H]1C[C@@H](COC(=O)N(C)[C@H](C)C(=O)O)[C@H](CC(C)C)CN1CC2 [Compound 5-17, (2R)-2-[({[(2R,3S,11bR)-9,10-dimethoxy-3-(2-methylpropyl)-1H,2H,3H,4H,6H,7H,11bH-pyrido[2,1-a]isoquinolin-2-yl]methoxy}carbonyl)(methyl)amino]propanoic acid] | 10 to 500 | + |
| COc1cc2c(cc1OC)[C@H]1C[C@@H](COC(=O)NC3(C(=O)O)CC3)[C@H](CC(C)C)CN1CC2 [Compound 5-5, 1-[({[(2R,3S,11bR)-9,10-dimethoxy-3-(2-methylpropyl)-1H,2H,3H,4H,6H,7H,11bH-pyrido[2,1-a]isoquinolin-2-yl]methoxy}carbonyl)amino]cyclopropane-1-carboxylic acid] | 10 to 500 | + |
| COc1cc2c(cc1OC)[C@H]1C[C@@H](COC(=O)NCC[C@H](O)C(=O)O)[C@H](CC(C)C)CN1CC2 [Compound 5-56, (2S)-4-[({[(2R,3S,11bR)-9,10-dimethoxy-3-(2-methylpropyl)-1H,2H,3H,4H,6H,7H,11bH-pyrido[2,1-a]isoquinolin-2-yl]methoxy}carbonyl)amino]-2-hydroxybutanoic acid] | 10 to 500 | + |
| COc1cc2c(cc1OC)[C@H]1C[C@@H](COC(=O)NC3CCCCC3C(=O)O)[C@H](CC(C)C)CN1CC2 (stereo partly drawn) [Compound 5-41, 2-[({[(2R,3S,11bR)-9,10-dimethoxy-3-(2-methylpropyl)-1H,2H,3H,4H,6H,7H,11bH-pyrido[2,1-a]isoquinolin-2-yl]methoxy}carbonyl)amino]cyclohexane-1-carboxylic acid] | 10 to 500 | + |
| COc1cc2c(cc1OC)[C@H]1C[C@@H](COC(=O)N3CCC(C(=O)O)C3)[C@H](CC(C)C)CN1CC2 (stereo partly drawn) [Compound 5-49, 1-({[(2R,3S,11bR)-9,10-dimethoxy-3-(2-methylpropyl)-1H,2H,3H,4H,6H,7H,11bH-pyrido[2,1-a]isoquinolin-2-yl]methoxy}carbonyl)pyrrolidine-3-carboxylic acid] | 10 to 500 | + |
| COc1cc2c(cc1OC)[C@H]1C[C@@H](COC(=O)N3CCNC[C@@H]3CO)[C@H](CC(C)C)CN1CC2 [Compound 6-7, [(2R,3S,11bR)-9,10-dimethoxy-3-(2-methylpropyl)-1H,2H,3H,4H,6H,7H,11bH-pyrido[2,1-a]isoquinolin-2-yl]methyl (2R)-2-(hydroxymethyl)piperazine-1-carboxylate] | < 10 | + |
| COc1cc2c(cc1OC)[C@H]1C[C@@H](COC(=O)NCCCC(=O)O)[C@H](CC(C)C)CN1CC2 [Compound 5-3, 4-[({[(2R,3S,11bR)-9,10-dimethoxy-3-(2-methylpropyl)-1H,2H,3H,4H,6H,7H,11bH-pyrido[2,1-a]isoquinolin-2-yl]methoxy}carbonyl)amino]butanoic acid] | > 500 | + |
| COc1cc2c(cc1OC)[C@H]1C[C@@H](COC(=O)[C@H]3CCCNC3)[C@H](CC(C)C)CN1CC2 [Compound 4-13, [(2R,3S,11bR)-9,10-dimethoxy-3-(2-methylpropyl)-1H,2H,3H,4H,6H,7H,11bH-pyrido[2,1-a]isoquinolin-2-yl]methyl (3S)-piperidine-3-carboxylate] | < 10 | +++ |
| COc1cc2c(cc1OC)[C@H]1C[C@@H](COC(=O)CCCN)[C@H](CC(C)C)CN1CC2 [Compound 4-31, [(2R,3S,11bR)-9,10-dimethoxy-3-(2-methylpropyl)-1H,2H,3H,4H,6H,7H,11bH-pyrido[2,1-a]isoquinolin-2-yl]methyl 4-aminobutanoate] | < 10 | ++ |
